PubChem BioAssay AID256 (DTP/NCI, 2004)
Several values for one entry are separate records, joined by “and”; a condition that tells them apart may be missing. Equal values may be shown once. Inconclusive results and toxic doses are left out. Rule for the calls: active = survival T/C of 150% or more; inactive = T/C below 125% in these data.

Tested on: CD2F1 mice, L1210 leukemia ip, survival T/C
Test: NCI In Vivo Anticancer Drug Screen. Data for tumor model L1210 Leukemia (intraperitoneal) in CD2F1 (CDF1) mice
Conditions: higher = longer survival
How it was run: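 Read-out first: treated-group measurement over vehicle-control measurement, expressed as a ratio. Animals bore a transplanted tumor line and were dosed with compound or vehicle.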

[1] = endpoint: mean survival time, dose: 100.0 mg/kg/injection, schedule: Q01DX009 (ip), vehicle: saline with Tween-80
[2] = endpoint: mean survival time, dose: 200.0 mg/kg/injection, schedule: Q01DX009 (ip), vehicle: saline with Tween-80
[3] = endpoint: mean survival time, dose: 400.0 mg/kg/injection, schedule: Q01DX009 (ip), vehicle: saline with Tween-80
[4] = endpoint: mean survival time, dose: 50.0 mg/kg/injection, schedule: Q04DX002 (ip), vehicle: saline with Tween-80
[5] = endpoint: mean survival time, dose: 100.0 mg/kg/injection, schedule: Q01DX009 (ip), vehicle: Klucel (hydroxypropylcellulose) (HPC)
[6] = endpoint: mean survival time, dose: 200.0 mg/kg/injection, schedule: Q01DX009 (ip), vehicle: Klucel (hydroxypropylcellulose) (HPC)
[7] = endpoint: mean survival time, dose: 12.5 mg/kg/injection, schedule: Q01DX009 (ip), vehicle: saline with Tween-80
[8] = endpoint: mean survival time, dose: 25.0 mg/kg/injection, schedule: Q01DX009 (ip), vehicle: saline with Tween-80
[9] = endpoint: mean survival time, dose: 50.0 mg/kg/injection, schedule: Q01DX009 (ip), vehicle: saline with Tween-80
[10] = endpoint: mean survival time, dose: 100.0 mg/kg/injection, schedule: Q04DX003 (ip), vehicle: saline with Tween-80
[11] = endpoint: mean survival time, dose: 200.0 mg/kg/injection, schedule: Q04DX003 (ip), vehicle: saline with Tween-80
[12] = endpoint: mean survival time, dose: 400.0 mg/kg/injection, schedule: Q04DX003 (ip), vehicle: saline with Tween-80

Measured: T/C

Cc1cccc(C(=O)CC(O)(C(F)(F)F)C(F)(F)F)c1
inactive: [1] 98 % of control | [2] 95 % of control | [3] 104 % of control

C[N+](C)(Cc1ccccc1)C1c2ccccc2-c2ccc(Cl)cc21 (centres undefined)
inactive: [4] 103 % of control

COC(=O)/C(Br)=C/C(C)=O
inactive: endpoint: mean survival time, dose: 100.0 mg/kg/injection, schedule: Q01DX001 (ip), vehicle: saline with Tween-80 107 % of control | endpoint: mean survival time, dose: 200.0 mg/kg/injection, schedule: Q01DX001 (ip), vehicle: saline with Tween-80 95 % of control

Cc1c(N)cccc1F
inactive: endpoint: mean survival time, dose: 50.0 mg/kg/injection, schedule: Q01DX009 (ip), vehicle: saline sonified 95 % of control | endpoint: mean survival time, dose: 100.0 mg/kg/injection, schedule: Q04DX003 (ip), vehicle: saline 95 % of control | endpoint: mean survival time, dose: 200.0 mg/kg/injection, schedule: Q04DX003 (ip), vehicle: saline 95 % of control

O=C(Nc1ccc(F)c(Cl)c1)N(CCO)C1CCCCC1
inactive: endpoint: mean survival time, dose: 50.0 mg/kg/injection, schedule: Q01DX009 (ip), vehicle: Klucel (hydroxypropylcellulose) (HPC) 91 % of control | [5] 102 % of control | [6] 95 % of control

CC(CC(C)O)=NCCN=C(C)CC(C)O.[Ni] (centres undefined)
inactive: endpoint: mean survival time, dose: 1.5 mg/kg/injection, schedule: Q01DX009 (ip), vehicle: saline with Tween-80 103 % of control | endpoint: mean survival time, dose: 3.0 mg/kg/injection, schedule: Q01DX009 (ip), vehicle: saline with Tween-80 101 % of control | endpoint: mean survival time, dose: 6.0 mg/kg/injection, schedule: Q01DX009 (ip), vehicle: saline with Tween-80 105 % of control | endpoint: mean survival time, dose: 12.5 mg/kg/injection, schedule: Q01DX001 (ip), vehicle: saline 102 % of control | endpoint: mean survival time, dose: 25.0 mg/kg/injection, schedule: Q01DX001 (ip), vehicle: saline 112 % of control

CN(C)N=Nc1c(F)cccc1F
inactive: endpoint: mean survival time, dose: 6.25 mg/kg/injection, schedule: Q01DX009 (ip), vehicle: other 98 % of control | endpoint: mean survival time, dose: 12.5 mg/kg/injection, schedule: Q01DX009 (ip), vehicle: other 113 % of control and 93 % of control | [7] 98 % of control | endpoint: mean survival time, dose: 25.0 mg/kg/injection, schedule: Q01DX009 (ip), vehicle: other 117 % of control and 100 % of control | [8] 106 % of control | endpoint: mean survival time, dose: 50.0 mg/kg/injection, schedule: Q01DX009 (ip), vehicle: other 91 % of control | [9] 120 % of control | endpoint: mean survival time, dose: 100.0 mg/kg/injection, schedule: Q01DX009 (ip), vehicle: other 102 % of control and 104 % of control

CC(=O)C[n+]1ccccc1Sc1ccc(Cl)cc1
inactive: endpoint: median survival time, dose: 12.5 mg/kg/injection, schedule: Q01DX005 (ip), vehicle: saline with Tween-80 100 % of control | endpoint: median survival time, dose: 25.0 mg/kg/injection, schedule: Q01DX005 (ip), vehicle: saline with Tween-80 101 % of control | endpoint: median survival time, dose: 50.0 mg/kg/injection, schedule: Q01DX005 (ip), vehicle: saline with Tween-80 97 % of control | endpoint: median survival time, dose: 100.0 mg/kg/injection, schedule: Q01DX005 (ip), vehicle: saline with Tween-80 107 % of control

CON(C)N=Nc1ccc(C(N)=O)cc1
inactive: endpoint: mean survival time, dose: 4.68 mg/kg/injection, schedule: Q01DX009 (ip), vehicle: Klucel (hydroxypropylcellulose) (HPC) 96 % of control and 110 % of control | endpoint: mean survival time, dose: 9.37 mg/kg/injection, schedule: Q01DX009 (ip), vehicle: Klucel (hydroxypropylcellulose) (HPC) 87 % of control and 109 % of control | endpoint: mean survival time, dose: 18.75 mg/kg/injection, schedule: Q01DX009 (ip), vehicle: Klucel (hydroxypropylcellulose) (HPC) 96 % of control and 101 % of control | endpoint: mean survival time, dose: 37.5 mg/kg/injection, schedule: Q01DX009 (ip), vehicle: Klucel (hydroxypropylcellulose) (HPC) 98 % of control and 104 % of control | endpoint: mean survival time, dose: 75.0 mg/kg/injection, schedule: Q01DX009 (ip), vehicle: Klucel (hydroxypropylcellulose) (HPC) 100 % of control and 103 % of control | endpoint: mean survival time, dose: 150.0 mg/kg/injection, schedule: Q01DX009 (ip), vehicle: Klucel (hydroxypropylcellulose) (HPC) 114 % of control and 103 % of control | endpoint: mean survival time, dose: 300.0 mg/kg/injection, schedule: Q01DX009 (ip), vehicle: Klucel (hydroxypropylcellulose) (HPC) 114 % of control

CC(=O)OCC(OC(C)=O)C(OC(C)=O)C(OC(C)=O)C(OC(C)=O)C(=O)C=O (centres undefined)
inactive: [9] 101 % of control | [1] 101 % of control | [2] 109 % of control

COc1cc2c(ccc3cc4cccc[n+]4cc32)c(Br)c1OC
inactive: [7] 98 % of control | endpoint: mean survival time, dose: 12.5 mg/kg/injection, schedule: Q04DX003 (ip), vehicle: saline sonified 97 % of control | [8] 100 % of control | endpoint: mean survival time, dose: 25.0 mg/kg/injection, schedule: Q04DX003 (ip), vehicle: saline sonified 97 % of control | [9] 100 % of control | endpoint: mean survival time, dose: 50.0 mg/kg/injection, schedule: Q04DX003 (ip), vehicle: saline sonified 103 % of control

Cc1ccc(NC(=O)Oc2cc(C)c(Cl)cc2C)c([N+](=O)[O-])c1
inactive: [5] 106 % of control | [6] 95 % of control | endpoint: mean survival time, dose: 400.0 mg/kg/injection, schedule: Q01DX009 (ip), vehicle: Klucel (hydroxypropylcellulose) (HPC) 92 % of control

CN1N(C(O)C(Cl)(Cl)Cl)C12CCCCC2 (centres undefined)
inactive: endpoint: mean survival time, dose: 12.0 mg/kg/injection, schedule: Q01DX001 (ip), vehicle: carboxymethylcellulose (CMC) 94 % of control | endpoint: mean survival time, dose: 25.0 mg/kg/injection, schedule: Q01DX001 (ip), vehicle: carboxymethylcellulose (CMC) 97 % of control | endpoint: mean survival time, dose: 50.0 mg/kg/injection, schedule: Q01DX001 (ip), vehicle: carboxymethylcellulose (CMC) 95 % of control | endpoint: mean survival time, dose: 100.0 mg/kg/injection, schedule: Q01DX001 (ip), vehicle: carboxymethylcellulose (CMC) 95 % of control

C=CCCCCCCCCC(=O)NCc1nc2ccccc2[nH]1
inactive: [1] 91 % of control | [2] 96 % of control | [3] 96 % of control

COC(CCC#N)c1ccc(Cl)cc1 (centres undefined)
inactive: [1] 95 % of control | [10] 97 % of control | [2] 101 % of control | [11] 102 % of control | [3] 96 % of control | [12] 98 % of control

CCCC(O)C1CCCCC1O (centres undefined)
inactive: [1] 92 % of control | [2] 92 % of control | [3] 96 % of control

Nc1ccccc1-c1n[nH]c2ccccc12
inactive: endpoint: mean survival time, dose: 25.0 mg/kg/injection, schedule: Q04DX002 (ip), vehicle: saline with Tween-80 110 % of control | [4] 103 % of control | endpoint: mean survival time, dose: 100.0 mg/kg/injection, schedule: Q04DX002 (ip), vehicle: saline with Tween-80 103 % of control | endpoint: mean survival time, dose: 200.0 mg/kg/injection, schedule: Q04DX002 (ip), vehicle: saline with Tween-80 100 % of control

C[N+]1(C)CCS(=O)(=O)CC1
inactive: [10] 94 % of control | [11] 95 % of control | [12] 86 % of control

CCOC(=O)Nc1cc2c(ncn2-c2ccccc2)c(N)n1
inactive: endpoint: mean survival time, dose: 100.0 mg/kg/injection, schedule: Q01DX001 (ip), vehicle: Klucel (hydroxypropylcellulose) (HPC) 98 % of control | endpoint: mean survival time, dose: 200.0 mg/kg/injection, schedule: Q01DX001 (ip), vehicle: Klucel (hydroxypropylcellulose) (HPC) 96 % of control

CC(=O)OC1CCC2C3CCC4=C(Cl)C(=O)CCC4C3CCC12C (centres undefined)
inactive: endpoint: mean survival time, dose: 100.0 mg/kg/injection, schedule: Q04DX003 (sc), vehicle: steriod suspending solution 98 % of control | endpoint: mean survival time, dose: 200.0 mg/kg/injection, schedule: Q04DX003 (sc), vehicle: steriod suspending solution 97 % of control | endpoint: mean survival time, dose: 400.0 mg/kg/injection, schedule: Q04DX003 (sc), vehicle: steriod suspending solution 106 % of control

CCN(CC)CCCCNc1ccc(NCCCCN(CC)CC)c2c1C(=O)c1ccccc1C2=O
inactive: endpoint: mean survival time, dose: 25.0 mg/kg/injection, schedule: Q01DX009 (ip), vehicle: saline 109 % of control | endpoint: mean survival time, dose: 50.0 mg/kg/injection, schedule: Q01DX009 (ip), vehicle: saline 90 % of control | endpoint: mean survival time, dose: 100.0 mg/kg/injection, schedule: Q01DX009 (ip), vehicle: saline 95 % of control
